Assay results reported in BindingDB's records for doi:10.1074/jbc.M112.356576 (University of Adelaide, 2012).

Each compound was assayed against T1, Bifunctional ligase/repressor BirA (Staphylococcus aureus, UniProt A0A3A5LBF0) (assay: Enzyme Inhibition Assay).
T1 sequence (A0A3A5LBF0 whole entry): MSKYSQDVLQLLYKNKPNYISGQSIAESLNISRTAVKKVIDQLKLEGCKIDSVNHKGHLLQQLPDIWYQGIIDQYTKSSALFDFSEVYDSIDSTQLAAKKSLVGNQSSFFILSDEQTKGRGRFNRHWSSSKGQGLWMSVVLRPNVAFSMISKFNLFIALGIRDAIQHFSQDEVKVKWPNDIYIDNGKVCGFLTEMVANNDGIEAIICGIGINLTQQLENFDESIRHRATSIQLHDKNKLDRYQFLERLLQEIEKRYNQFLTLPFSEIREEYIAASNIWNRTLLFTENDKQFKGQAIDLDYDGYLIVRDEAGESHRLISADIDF
Excerpt: In vitro enzyme inhibition using biotin protein ligase.

| SMILES | Ki |
| --- | --- |
| Nc1ncnc2c1NCN2[C@@H]1O[C@H](Cn2cc(CCCCC[C@@H]3SCC4NC(=O)NC43)nn2)[C@@H](O)[C@H]1O (stereo partly drawn) [Biotin triazole, 5] | 1170 nM |
| CC(C)(C)C(=O)OCCn1cc(CCCCC[C@@H]2SCC3NC(=O)NC32)nn1 (stereo partly drawn) [Biotin triazole, 10] | > 10000 nM |
| O=C1NC2CS[C@@H](CCCCCc3cn(CCCCOc4ccccc4)nn3)C2N1 (stereo partly drawn) [Biotin triazole, 11] | > 10000 nM |
| O=C1NC2CS[C@@H](CCCCCc3cn(CCCCOc4cccc5ccccc45)nn3)C2N1 (stereo partly drawn) [Biotin triazole, 12] | > 10000 nM |
| O=C1NC2CS[C@@H](CCCCCc3cn(CCCCOc4ccc5ccccc5c4)nn3)C2N1 (stereo partly drawn) [Biotin triazole, 13] | 1170 nM |
| Cc1ccc2oc(=O)n(CCCCn3cc(CCCCC[C@@H]4SCC5NC(=O)NC54)nn3)c2c1 (stereo partly drawn) [Biotin triazole, 14] | 90 nM |
| O=C1NC2CS[C@@H](CCCCCc3cn(CCCOc4ccc5ccccc5c4)nn3)C2N1 (stereo partly drawn) [Biotin triazole, 15] | > 10000 nM |
| Cc1ccc2oc(=O)n(CCCn3cc(COCCC[C@@H]4SCC5NC(=O)NC54)nn3)c2c1 (stereo partly drawn) [Biotin triazole, 16] | > 10000 nM |
